Values quoted from earlier work as cited in paper PMC7318425 (Bioorganic & medicinal chemistry letters, 2019).

System: off-target kinases
Conditions: KinomeScan, compared with ibrutinib

Nc1ncnc2c1c(-c1ccc(Oc3ccccc3)cc1)nn2C1CCN(CCOCCOCC(=O)Nc2ccc3c(c2)C(=O)N(C2CCC(=O)NC2=O)C3=O)CC1 (stereo not shown) [MT802]
off-target kinase binding: binds fewer off-target kinases than ibrutinib
